Results taken from patent publication US20200239938A1 (priority 2017, published 2020).

Legend:
Assay type in all cases: cell-based
[1] = tested on: Campylobacter jejuni DSM-24306; assay: drop plate enumeration of viable cells on Columbia Blood Agar; set-up: key: +++: bacterial lawn; ++: few colonies; +: single colonies; −: no growth observable
[2] = tested on: Salmonella enterica subsp. enterica DSM-5569; assay: drop plate enumeration of viable cells on tryptic soy agar; set-up: key to drop plate growth: +++: bacterial lawn; ++: few colonies; +: single colonies; −: no growth observable; conditions: for viable cells at the start of cultivation: 0 h
Text: (§1) The pathogens of interest Salmonella enterica subsp. enterica and Campylobacter jejuni were cultivated in microtiter plate scale in order to enable the simultaneous application of four different starting culture concentrations and treatments (Table 3). For analysis, samples for DNA extraction were taken after different times of cultivation and applied for qPCR enumeration of Salmonella enterica subsp. enterica and Campylobacter jejuni specific genes. As the qPCR assay is designed to record both viable and non-viable cells, an additional viability check was performed for AB treated cultures and the untreated controls.
(§2) In order to evaluate the effect of bactericidic effect Kanamycin, drop plate tests were performed to determine the number of viable cells. Three dilutions of a ten-fold series of the high (dilutions 10^−3, 10^−4 and 10^−5) and low (dilutions 10′, 10^−2 and 10^−3) inoculated culture after 0 and 6 h were plated in triplicates on CBA (Campylobacter) or tryptic soy agar (TSA) (Salmonella) by dropping 10 μl on the agar. The plates were evaluated regarding growth at the distinct log dilutions after 24 h incubation (41° C. microaerophilic for Campylobacter, 37° C. aerobic for Salmonella).

[3] = tested on: Campylobacter jejuni DSM-24306; assay: microtiter plate cultivation assay with qPCR enumeration of the Cj0414 target gene (growth curves, growth rate); conditions: Butyrate 25 mM; for growth rate: cultivation period of 0 to 7 h, very high to low inoculum, GutCare 10% (v/v)
Text: as §1
For Campylobacter jejuni experiments the DSMZ strain DSM-24306 was applied. The inoculum culture was produced by a first overnight cultivation on Columbia Blood Agar (CBA) followed by an overnight cultivation in Mueller-Hinton broth (MH). All cultivations took place under microaerophilic conditions (5% O2, 10% CO2, and […]) at 41° C.
The actual assay was carried out in microtiter plate format containing a total volume of 200 μl. Following media for the different treatment conditions were prepared according to Table 4. For the probiotic treatments (Ecobiol and GutCare), sterile filtrated supernatant of an overnight culture (=cell-free) or non-sterile filtrated, cell-containing supernatant of the same overnight culture was applied.
For C. jejuni all treatments were prepared in MH medium and for S. enterica in LBG respectively. Strains were cultivated under the conditions described in 2.1. Inoculated medium without any treatment served as an untreated control.
For each intervention and for the untreated control, following inoculum concentrations given in starting quantity of the Salmonella enterica subsp. enterica and Campylobacter jejuni specific target gene per ml culture were applied for the start of the assay:
From each concentration and treatment, enough wells were prepared to extract DNA from three well replicates per time point and treatment. For Campylobacter, DNA was extracted after 0, 7, 24 and 48 h. For Salmonella, 0, 2, 4, 6, 24 and 30 h of cultivation were chosen. […]
(§3) For enumeration of Salmonella or Campylobacter, primers and probes binding in conserved genetic regions, specific for each species were applied in qPCR assays with a total volume of 30 μl and a DNA eluate volume of 10 μl. […] Absolute quantification of targets was performed under consolidation of standard curves that were carried with each run. Using the standard curves, the starting quantity (SQ) of the specific target was calculated for each sample. […]
To outline the effect of each treatment, the difference of growth rates between untreated and treated cultures was calculated for each starting inoculum concentration as following: […]

[4] = tested on: Salmonella enterica subsp. enterica DSM-5569; assay: drop plate enumeration of viable cells on tryptic soy agar; set-up: key: +++: bacterial lawn; ++: few colonies; +: single colonies; −: no growth observable
[5] = tested on: Campylobacter jejuni DSM-24306; assay: drop plate enumeration of viable cells on Columbia Blood Agar; set-up: key to drop plate growth: +++: bacterial lawn; ++: few colonies; +: single colonies; −: no growth observable; conditions: for viable cells at the start of cultivation: 0 h
Text: as §1, §2

[6] = tested on: Salmonella enterica subsp. enterica DSM-5569; assay: microtiter plate cultivation assay with qPCR enumeration of the hilA target gene (growth curves, growth rate)
Text: as §1, with “controls. […]” for “controls.”
For each intervention and for the untreated control, following inoculum concentrations given in starting quantity of the Salmonella enterica subsp. enterica and Campylobacter jejuni specific target gene per ml culture were applied for the start of the assay: […]
as §3

[7] = High concentrated, After 0 h, dilution 10^−6
[8] = High concentrated, After 0 h, dilution 10^−7
[9] = High concentrated, After 6 h, dilution 10^−6
[10] = High concentrated, After 6 h, dilution 10^−7
[11] = Low concentrated, After 0 h, dilution 10^−4
[12] = Low concentrated, After 0 h, dilution 10^−5
[13] = Low concentrated, After 6 h, dilution 10^−4
[14] = Low concentrated, After 6 h, dilution 10^−5
[15] = High concentrated, After 0 h, dilution 10^−5
[16] = High concentrated, After 6 h, dilution 10^−5
[17] = Low concentrated, After 0 h, dilution 10^−3
[18] = Low concentrated, After 6 h, dilution 10^−3

With NC[C@H]1O[C@H](O[C@H]2[C@H](O)[C@@H](O[C@H]3O[C@H](CO)[C@@H](O)[C@H](N)[C@H]3O)[C@H](N)C[C@@H]2N)[C@H](O)[C@@H](O)[C@@H]1O [Kanamycin] the drop plate growth [1, 7] was “+”, the drop plate growth [1, 8] was “−” and the drop plate growth [1, 9] was “−”. The drop plate growth [1, 10] was “−”, the drop plate growth [1, 11] was “++” and the drop plate growth [1, 12] was “+”. For the same molecule, the drop plate growth [1, 13] was “−”, the drop plate growth [1, 14] was “−” and the drop plate growth [2, 15] was “+++”. For the same molecule, the drop plate growth [2, 16] was “−”, the drop plate growth [2, 17] was “+++” and the drop plate growth [2, 18] was “−”. For the same molecule, the “viable cells at the start of cultivation” value ([2]; high concentrated inoculum) was 6-7 log, the “viable cells at the start of cultivation” value ([2]; low concentrated inoculum) was 5 log and the growth rate ([3]; Kanamycin 50 μl/ml) was about 0.13. The drop plate growth [4, 7] was “++”, the drop plate growth [4, 8] was “+” and the drop plate growth [4, 9] was “−”. For the same molecule, the drop plate growth [4, 10] was “−”, the drop plate growth [4, 11] was “++” and the drop plate growth [4, 12] was “+”. The drop plate growth [4, 13] was “−”, the drop plate growth [4, 14] was “−” and the drop plate growth [5, 15] was “++”. The drop plate growth [5, 16] was “−”, the drop plate growth [5, 17] was “++” and the drop plate growth [5, 18] was “−”. The “viable cells at the start of cultivation” value ([5]; high concentrated inoculum) was 6-7 log and the “viable cells at the start of cultivation” value ([5]; low concentrated inoculum) was 5 log.
With CCCC(=O)[O-].[Na+] [sodium butyrate, Sodium butyrate] the “growth curve (target starting quantity (SQ) per ml culture, qPCR)” value ([3]; all inoculum concentrations, MH medium, 41° C. microaerophilic, GutCare (cell-free) 10% (v/v), Kanamycin 50 μl/ml, 0-48 h) was “inhibitory effect”, the “plateau SQ” value ([3]; compared with untreated control) was “significantly lower plateau SQ” and the growth rate ([3]; Kanamycin 50 μl/ml) was “around 0.24”. For the same molecule, the “difference of the growth rates (delta) from untreated control” value ([6]; 0 to 7 h, in relation to inoculum concentration (very high to low)) was “effect is rather low for all concentrations” and the “growth curve (target starting quantity (SQ) per ml culture, qPCR)” value ([6]; all inoculum concentrations, LBG, 37° C. aerobic, Butyrate 25 mM, Ecobiol 10% (v/v), 0-30 h) was “strong exponential growth during the first 7 h”.
